From US11407725B2 (The Board of Trustees of the University of Illinois, priority 2018, dated 2022)
“Also recorded” adds a separate entry of the source.

Tests used:
[1] = target: T1, ALDH1A1 (Homo sapiens, UniProt P00352); assay: ALDH isoform selectivity of red probes: ALDH1A1; type: biochemical
T1 construct: made in house
T1 sequence (P00352 1-501): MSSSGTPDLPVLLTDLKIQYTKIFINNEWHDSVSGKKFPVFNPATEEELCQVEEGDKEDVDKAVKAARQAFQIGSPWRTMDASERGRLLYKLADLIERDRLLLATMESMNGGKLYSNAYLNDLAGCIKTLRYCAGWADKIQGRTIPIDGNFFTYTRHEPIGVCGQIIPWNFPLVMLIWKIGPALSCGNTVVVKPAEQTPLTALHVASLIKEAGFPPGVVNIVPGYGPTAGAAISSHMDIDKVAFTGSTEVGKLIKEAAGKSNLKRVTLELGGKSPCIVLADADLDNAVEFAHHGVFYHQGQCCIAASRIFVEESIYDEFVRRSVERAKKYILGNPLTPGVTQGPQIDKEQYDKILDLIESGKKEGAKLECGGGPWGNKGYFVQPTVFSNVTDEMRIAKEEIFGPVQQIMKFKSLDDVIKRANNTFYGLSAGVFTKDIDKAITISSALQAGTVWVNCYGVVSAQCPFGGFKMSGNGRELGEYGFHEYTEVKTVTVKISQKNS
Description: Each ALDH isoform was added to a 50 mM triethanolamine solution (pH 7.4) containing 2.0 mM NAD^+ and 100 μM substrate at room temperature. Benzaldehyde was the substrate for ALDH3A1. Propanal was the substrate for all other isoforms. ALDH isoform activity was determined by monitoring the rate of NADH production through the increase in absorbance at 340 nm (ε=6220 M^−1cm^−1). For these assays, 1 unit is defined as the amount of enzyme that catalyzes the conversion of […] per minute. For every combination of dye and enzyme, 2 μM dye was preincubated with 2.0 mM NAD^+ in 50 mM triethanolamine solution (pH 7.4). The reaction was initiated by addition of 1 unit of ALDH. Dyes were excited at 590 nm, and fluorescence was measured continuously at 610 nm.

[2] = target: T1, ALDH1A1; assay: ALDH1A1 kinetics; type: biochemical
Description: Solutions were prepared of 2.0 mM NAD+ and 0.1-2.5 μM AlDeSense or red-AlDeSense in 50 mM triethanolamine solution (pH 7.4). For every concentration, 1 unit of enzyme (as defined and determined in ALDH Isoform Selectivity) was added. Fluorescence was monitored for 30 seconds to determine V0. AlDeSense was excited at 490 nm and monitored at 510 nm. Red-AlDeSense was excited at 590 nm and monitored at 610 nm. Each condition was performed in triplicate. Protein concentration was determined using the Pierce™ BCA Protein Assay Kit. Data was analyzed using Microsoft Excel.

[3] = tested on: e-CSC and non-CSC melanoma lung metastases; assay: Ex vivo lung metastases imaging; type: in vivo, mice; conditions: lungs perfused ex vivo, day 7 and 11
Description: Six to eight-week-old female C57BL/6J mice were purchased from Jackson Laboratory. Experimental metastases were established by injecting 2×10^5 melanoma cells via lateral tail vein injection. Mice were euthanized at either 7- or 11-days post injection. Immediately after euthanization, their lungs were excised and perfused with about 1 mL of either 15 μM AlDeSense AM or 15 μM Ctrl-AlDeSense AM in PBS. Outer portions of the lungs were rinsed in 15 mL of PBS to remove blood or excess dyes. After 2 hours incubation at room temperature (25° C.), the lungs were imaged on the IVIS spectrum imaging system (Perkin Elmer). Data was processed using Living Image software (Version 4.1).

[4] = tested on: e-CSC and non-CSC B16F0 tumors; assay: In vivo melanoma tumor fluorescence imaging; design: species or system mice; conditions: 1 and 2 weeks
[5] = tested on: panel of the most common ALDH isoforms; assay: AlDeSense isoform selectivity assay; type: biochemical, human; conditions: 20 units of each isoform, 1 μM AlDeSense
Description: The activity of each isoform of ALDH was confirmed by monitoring the production of NADH at 340 nm when incubated with the most commonly used substrate for that enzyme (propionaldehyde for ALDH1A1, ALDH1A2, ALDH1A3, ALDH2 and ALDH4A1; benzaldehyde for ALDH3A1, and succinic semialdehyde for ALDH5A1). Each isoform was diluted with 50 mM triethanolamine (TEA, pH 7.4) to a final concentration of 1 μM and placed in a 1 mL quartz cuvette. Directly before measurement, NAD^+ was added to final concentration of 2.5 mM and the preferred substrate was added to a final concentration of 1 mM. Absorbance spectra were taken from 300 to 500 nm every half minute for 15 minutes. Units of activity for each enzyme were calculated from the slope of absorbance increase at 340 nm over time, (1 unit=1 μmol substrate turned over/[…]/min).
Activation of AlDeSense was assessed using 20 units of each ALDH isoform. Activity was determined by activity measurements using each isoform's preferred substrate (1 unit=1 μmol substrate turned over/mol enzyme/min). Further details are in the supplementary information. […]
AlDeSense activation was determined using fluorescence. […] After vigorous mixing, the reaction was monitored at room temperature for 15 min. Fluorescence spectra were acquired according to following parameters: λex=498 nm, and emission range=505-580 nm. […]

[6] = Log D7.4; type: physicochemical; conditions: pH 7.4

Row | SMILES | turn-on response when treated with ALDH1A1 [1] [fold] | Enzyme Activity 1A1 ([1]; Table 2) | Enzymatic Turn On ([1]; Table 2, ALDH1A1, 2 μM dye) | higher catalytic efficiency (kcat/Km) versus AlDeSense [2] [fold] | fluorescence of e-CSC lungs versus non-CSC lungs [3] | signal in e-CSC versus non-CSC tumors [4] | cross-reactivity against panel of ALDH isoforms [5] | logD [6]
1 | Cc1cc(C=O)c(F)c(F)c1C1=C2C=CC(=O)C=C2[Si](C)(C)c2cc(O)ccc21 | 3.2 | High | 3.2 | 2.3 | – | – | – | –
2 | Cc1cc(C=O)ccc1-c1c2cc(F)c(=O)cc-2oc2cc(O)c(F)cc12 [AlDeSense] | – | – | – | – | higher | consistently higher signal | only ALDH1A1 led to probe activation; also recorded: did not observe cross-reactivity; also recorded: selective for only the ALDH1A1 isoform | 0.88
